Measurements reported in the NIST ThermoML archive (doi:10.1016/j.jct.2007.09.004).
± gives the expanded uncertainty stated by the source.

Experiments:
[1] = xn = mol fraction of the nth substance listed; conditions: 101 kPa, Liquid
[2] = relative permittivity at zero frequency (dimensionless); xn = mol fraction of the nth substance listed; conditions: 101 kPa, Liquid, Parallel plate capacitor
[3] = 101 kPa, Liquid
[4] = relative permittivity at zero frequency (dimensionless); conditions: 101 kPa, Liquid, Parallel plate capacitor

CCCOCCO [2-propoxyethanol] + OCCOCCO
Conditions	mass density, 293.15 K [kg/m3]	mass density, 298.15 K [kg/m3]	mass density, 303.15 K [kg/m3]	relative permittivity at zero frequency, 293.15 K	relative permittivity at zero frequency, 298.15 K	relative permittivity at zero frequency, 303.15 K
[1], x1 = 0.0436	1106.38 ± 1.7	1102.72 ± 1.7	1098.89 ± 1.8	–	–	–
[1], x1 = 0.1	1093.5 ± 1.6	1089.56 ± 1.7	1085.52 ± 1.8	–	–	–
[1], x1 = 0.2007	1071 ± 1.6	1066.79 ± 1.7	1062.47 ± 1.7	–	–	–
[1], x1 = 0.2997	1049.58 ± 1.6	1045.22 ± 1.6	1040.76 ± 1.7	–	–	–
[1], x1 = 0.3999	1028.62 ± 1.6	1024.11 ± 1.6	1019.56 ± 1.7	–	–	–
[1], x1 = 0.4968	1008.87 ± 1.5	1004.21 ± 1.6	999.53 ± 1.6	–	–	–
[1], x1 = 0.6002	988.3 ± 1.5	983.48 ± 1.6	978.63 ± 1.6	–	–	–
[1], x1 = 0.6985	969.23 ± 1.5	964.21 ± 1.5	959.16 ± 1.6	–	–	–
[1], x1 = 0.7998	950.04 ± 1.4	944.82 ± 1.5	939.65 ± 1.6	–	–	–
[1], x1 = 0.8992	931.65 ± 1.4	926.35 ± 1.5	921.14 ± 1.5	–	–	–
[1], x1 = 0.9499	922.4 ± 1.4	917.14 ± 1.5	911.97 ± 1.5	–	–	–
[1], x1 = 1	913.31 ± 1.4	908.19 ± 1.5	903.11 ± 1.5	–	–	–
[2], x1 = 0.0435	–	–	–	31.3 ± 0.04	30.42 ± 0.04	29.5 ± 0.04
[2], x1 = 0.0998	–	–	–	30.58 ± 0.04	29.69 ± 0.04	28.76 ± 0.04
[2], x1 = 0.197	–	–	–	29.18 ± 0.04	28.31 ± 0.04	27.4 ± 0.04
[2], x1 = 0.2962	–	–	–	27.57 ± 0.04	26.74 ± 0.04	25.88 ± 0.04
[2], x1 = 0.3996	–	–	–	25.72 ± 0.04	24.95 ± 0.04	24.14 ± 0.04
[2], x1 = 0.4964	–	–	–	23.82 ± 0.04	23.13 ± 0.04	22.39 ± 0.04
[2], x1 = 0.5955	–	–	–	21.73 ± 0.04	21.13 ± 0.04	20.46 ± 0.04
[2], x1 = 0.6996	–	–	–	19.43 ± 0.04	18.88 ± 0.04	18.29 ± 0.04
[2], x1 = 0.8001	–	–	–	17.06 ± 0.04	16.58 ± 0.04	16.06 ± 0.04
[2], x1 = 0.8999	–	–	–	14.55 ± 0.04	14.13 ± 0.04	13.7 ± 0.04
[2], x1 = 0.9499	–	–	–	13.2 ± 0.04	12.83 ± 0.04	12.46 ± 0.04
[2], x1 = 1	–	–	–	11.76 ± 0.04	11.5 ± 0.04	11.19 ± 0.04

CCCOCCO [2-propoxyethanol] + OCCOCCOCCO
Conditions	mass density, 293.15 K [kg/m3]	mass density, 298.15 K [kg/m3]	mass density, 303.15 K [kg/m3]	relative permittivity at zero frequency, 293.15 K	relative permittivity at zero frequency, 298.15 K	relative permittivity at zero frequency, 303.15 K
[1], x1 = 0.0413	1116.67 ± 1.9	1112.44 ± 1.9	1108.49 ± 2	–	–	–
[1], x1 = 0.1061	1105.37 ± 1.8	1100.97 ± 1.9	1096.78 ± 1.9	–	–	–
[1], x1 = 0.1986	1088.75 ± 1.8	1084.08 ± 1.9	1079.65 ± 1.9	–	–	–
[1], x1 = 0.2999	1069.72 ± 1.8	1064.9 ± 1.8	1060.23 ± 1.9	–	–	–
[1], x1 = 0.3999	1050.01 ± 1.7	1045.15 ± 1.8	1040.34 ± 1.8	–	–	–
[1], x1 = 0.5	1029.46 ± 1.7	1024.57 ± 1.7	1019.67 ± 1.8	–	–	–
[1], x1 = 0.6	1008.1 ± 1.6	1003.16 ± 1.7	998.18 ± 1.7	–	–	–
[1], x1 = 0.7002	985.9 ± 1.6	980.84 ± 1.6	975.77 ± 1.7	–	–	–
[1], x1 = 0.8	962.85 ± 1.5	957.69 ± 1.6	952.55 ± 1.6	–	–	–
[1], x1 = 0.9	938.69 ± 1.5	933.46 ± 1.5	928.29 ± 1.6	–	–	–
[1], x1 = 0.95	926.18 ± 1.4	920.99 ± 1.5	915.81 ± 1.6	–	–	–
[1], x1 = 1	913.31 ± 1.4	908.19 ± 1.5	903.11 ± 1.5	–	–	–
[2], x1 = 0.0501	–	–	–	23.33 ± 0.04	22.71 ± 0.04	22.07 ± 0.04
[2], x1 = 0.1003	–	–	–	22.93 ± 0.04	22.33 ± 0.04	21.68 ± 0.04
[2], x1 = 0.2005	–	–	–	22.09 ± 0.04	21.51 ± 0.04	20.89 ± 0.04
[2], x1 = 0.2999	–	–	–	21.25 ± 0.04	20.64 ± 0.04	20.02 ± 0.04
[2], x1 = 0.4001	–	–	–	20.35 ± 0.04	19.66 ± 0.04	19.06 ± 0.04
[2], x1 = 0.5	–	–	–	19.33 ± 0.04	18.59 ± 0.04	18.02 ± 0.04
[2], x1 = 0.6002	–	–	–	18.11 ± 0.04	17.41 ± 0.04	16.88 ± 0.04
[2], x1 = 0.7002	–	–	–	16.71 ± 0.04	16.13 ± 0.04	15.63 ± 0.04
[2], x1 = 0.8	–	–	–	15.16 ± 0.04	14.73 ± 0.04	14.28 ± 0.04
[2], x1 = 0.9	–	–	–	13.53 ± 0.04	13.18 ± 0.04	12.78 ± 0.04
[2], x1 = 0.95	–	–	–	12.69 ± 0.04	12.36 ± 0.04	11.99 ± 0.04
[2], x1 = 1	–	–	–	11.76 ± 0.04	11.5 ± 0.04	11.19 ± 0.04

OCCOCCOCCO [triethylene glycol]
Conditions	mass density, 293.15 K [kg/m3]	mass density, 298.15 K [kg/m3]	mass density, 303.15 K [kg/m3]	relative permittivity at zero frequency, 293.15 K	relative permittivity at zero frequency, 298.15 K	relative permittivity at zero frequency, 303.15 K
[3]	1123.74 ± 1.9	1119.66 ± 1.9	1115.83 ± 2	–	–	–
[4]	–	–	–	23.69 ± 0.04	23.07 ± 0.04	22.43 ± 0.04

CCCOCCO [2-propoxyethanol]
Conditions	mass density, 293.15 K [kg/m3]	mass density, 298.15 K [kg/m3]	mass density, 303.15 K [kg/m3]	relative permittivity at zero frequency, 293.15 K	relative permittivity at zero frequency, 298.15 K	relative permittivity at zero frequency, 303.15 K
[3]	913.31 ± 1.4	908.19 ± 1.5	903.11 ± 1.5	–	–	–
[4]	–	–	–	11.76 ± 0.04	11.5 ± 0.04	11.19 ± 0.04

OCCOCCOCCO [triethylene glycol] + CCCOCCO
x2 = 0
Conditions	mass density, 293.15 K [kg/m3]	mass density, 298.15 K [kg/m3]	mass density, 303.15 K [kg/m3]	relative permittivity at zero frequency, 293.15 K	relative permittivity at zero frequency, 298.15 K	relative permittivity at zero frequency, 303.15 K
[1]	1123.74 ± 1.9	1119.66 ± 1.9	1115.83 ± 2	–	–	–
[2]	–	–	–	23.69 ± 0.04	23.07 ± 0.04	22.43 ± 0.04

CCCOCCO [2-propoxyethanol] + OCCOCCOCCOCCO
Conditions	mass density, 293.15 K [kg/m3]	mass density, 298.15 K [kg/m3]	mass density, 303.15 K [kg/m3]	relative permittivity at zero frequency, 293.15 K	relative permittivity at zero frequency, 298.15 K	relative permittivity at zero frequency, 303.15 K
[1], x1 = 0.05	1116.81 ± 1.9	1113.41 ± 1.9	1110.02 ± 2	–	–	–
[1], x1 = 0.0996	1109.94 ± 1.8	1106.38 ± 1.9	1102.89 ± 2	–	–	–
[1], x1 = 0.1997	1095.15 ± 1.8	1091.4 ± 1.9	1087.69 ± 1.9	–	–	–
[1], x1 = 0.3	1079.09 ± 1.8	1075.16 ± 1.8	1071.19 ± 1.9	–	–	–
[1], x1 = 0.4012	1061.43 ± 1.7	1057.31 ± 1.8	1053.07 ± 1.9	–	–	–
[1], x1 = 0.5	1042.6 ± 1.7	1038.25 ± 1.8	1033.77 ± 1.8	–	–	–
[1], x1 = 0.6	1021.64 ± 1.6	1017.06 ± 1.7	1012.39 ± 1.8	–	–	–
[1], x1 = 0.7	998.51 ± 1.6	993.75 ± 1.6	988.93 ± 1.7	–	–	–
[1], x1 = 0.8	973.03 ± 1.5	968.09 ± 1.6	963.16 ± 1.6	–	–	–
[1], x1 = 0.9	944.82 ± 1.5	939.77 ± 1.5	934.7 ± 1.6	–	–	–
[1], x1 = 0.95	929.54 ± 1.4	924.43 ± 1.5	919.34 ± 1.6	–	–	–
[1], x1 = 1	913.31 ± 1.4	908.19 ± 1.5	903.11 ± 1.5	–	–	–
[2], x1 = 0.05	–	–	–	20.13 ± 0.04	19.58 ± 0.04	19.01 ± 0.04
[2], x1 = 0.1	–	–	–	19.82 ± 0.04	19.26 ± 0.04	18.68 ± 0.04
[2], x1 = 0.2	–	–	–	19.18 ± 0.04	18.62 ± 0.04	18.05 ± 0.04
[2], x1 = 0.3002	–	–	–	18.49 ± 0.04	17.95 ± 0.04	17.39 ± 0.04
[2], x1 = 0.4001	–	–	–	17.73 ± 0.04	17.21 ± 0.04	16.69 ± 0.04
[2], x1 = 0.5003	–	–	–	16.88 ± 0.04	16.4 ± 0.04	15.91 ± 0.04
[2], x1 = 0.6	–	–	–	15.95 ± 0.04	15.53 ± 0.04	15.07 ± 0.04
[2], x1 = 0.7002	–	–	–	14.99 ± 0.04	14.61 ± 0.04	14.18 ± 0.04
[2], x1 = 0.7999	–	–	–	14.01 ± 0.04	13.64 ± 0.04	13.24 ± 0.04
[2], x1 = 0.9	–	–	–	12.96 ± 0.04	12.62 ± 0.04	12.26 ± 0.04
[2], x1 = 0.9501	–	–	–	12.38 ± 0.04	12.07 ± 0.04	11.73 ± 0.04
[2], x1 = 1	–	–	–	11.76 ± 0.04	11.5 ± 0.04	11.19 ± 0.04

OCCOCCO [diethylene glycol]
Conditions	mass density, 293.15 K [kg/m3]	mass density, 298.15 K [kg/m3]	mass density, 303.15 K [kg/m3]	relative permittivity at zero frequency, 293.15 K	relative permittivity at zero frequency, 298.15 K	relative permittivity at zero frequency, 303.15 K
[3]	1116.38 ± 1.7	1113.03 ± 1.7	1109.47 ± 1.8	–	–	–
[4]	–	–	–	31.81 ± 0.04	30.95 ± 0.04	30.03 ± 0.04

OCCOCCO [diethylene glycol] + CCCOCCO
x2 = 0
Conditions	mass density, 293.15 K [kg/m3]	mass density, 298.15 K [kg/m3]	mass density, 303.15 K [kg/m3]	relative permittivity at zero frequency, 293.15 K	relative permittivity at zero frequency, 298.15 K	relative permittivity at zero frequency, 303.15 K
[1]	1116.38 ± 1.7	1113.03 ± 1.7	1109.47 ± 1.8	–	–	–
[2]	–	–	–	31.81 ± 0.04	30.95 ± 0.04	30.03 ± 0.04
